The text below walks through data of paper PMC4780864, “Family-wide Structural Analysis of Human Numb-Associated Protein Kinases” (Structure(London, England:1993), 2016).

Test in all cases: biochemical
The target of one experiment is T1, BIKE (Homo sapiens, UniProt Q9NSY1).
T1 construct: gene BMP2K; catalytic domain-containing construct
The arrangement: Thermal shift assay (DSF, SYPRO Orange), 2 uM kinase domain, mean delta Tm of triplicates versus DMSO. The note with it: read-out: BIKE. As for the experimental part: (§1) All measurements were performed in triplicate and mean values were reported for all compounds (Table S1). […] However, NAKs are often omitted from selectivity panels, including commercial screens.

A further experiment addresses T2, GAK (Homo sapiens, UniProt O14976).
T2 construct: catalytic domain-containing construct
T2 sequence (O14976 1-1311): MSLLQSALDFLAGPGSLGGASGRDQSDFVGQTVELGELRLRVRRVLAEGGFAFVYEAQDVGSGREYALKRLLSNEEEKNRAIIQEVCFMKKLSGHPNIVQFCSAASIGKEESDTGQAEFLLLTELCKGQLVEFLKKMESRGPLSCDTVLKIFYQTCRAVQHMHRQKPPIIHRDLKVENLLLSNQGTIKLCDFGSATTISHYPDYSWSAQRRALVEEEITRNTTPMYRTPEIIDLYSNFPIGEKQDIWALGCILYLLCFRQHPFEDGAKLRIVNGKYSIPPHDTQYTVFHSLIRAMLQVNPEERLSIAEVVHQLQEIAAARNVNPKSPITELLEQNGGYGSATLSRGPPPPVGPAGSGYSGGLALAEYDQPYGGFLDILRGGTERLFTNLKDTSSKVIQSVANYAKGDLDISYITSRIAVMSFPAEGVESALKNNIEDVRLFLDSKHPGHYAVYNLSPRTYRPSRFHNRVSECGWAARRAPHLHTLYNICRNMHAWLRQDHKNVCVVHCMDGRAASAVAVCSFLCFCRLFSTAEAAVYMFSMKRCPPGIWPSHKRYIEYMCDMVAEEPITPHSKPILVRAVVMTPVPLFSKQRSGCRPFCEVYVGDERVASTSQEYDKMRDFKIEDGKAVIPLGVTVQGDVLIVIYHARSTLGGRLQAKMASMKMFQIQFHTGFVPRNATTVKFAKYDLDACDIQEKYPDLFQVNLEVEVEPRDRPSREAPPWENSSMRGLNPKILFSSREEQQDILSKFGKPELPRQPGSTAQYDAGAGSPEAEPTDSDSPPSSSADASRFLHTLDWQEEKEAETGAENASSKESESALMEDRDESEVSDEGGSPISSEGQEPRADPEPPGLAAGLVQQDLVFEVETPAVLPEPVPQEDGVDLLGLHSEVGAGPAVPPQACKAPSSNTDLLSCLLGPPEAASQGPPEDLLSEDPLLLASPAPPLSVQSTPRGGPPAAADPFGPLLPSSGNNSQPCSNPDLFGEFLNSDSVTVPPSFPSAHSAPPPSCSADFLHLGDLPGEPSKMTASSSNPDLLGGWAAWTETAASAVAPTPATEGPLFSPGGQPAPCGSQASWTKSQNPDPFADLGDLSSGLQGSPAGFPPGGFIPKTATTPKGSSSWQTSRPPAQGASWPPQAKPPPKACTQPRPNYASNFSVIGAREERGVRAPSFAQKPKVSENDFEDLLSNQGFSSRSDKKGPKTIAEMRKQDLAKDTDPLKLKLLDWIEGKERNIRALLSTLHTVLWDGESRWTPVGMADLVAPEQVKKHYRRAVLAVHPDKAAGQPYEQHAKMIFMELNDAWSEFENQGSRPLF
The arrangement: Thermal shift assay (DSF, SYPRO Orange), 2 uM kinase domain, mean delta Tm of triplicates versus DMSO. To be noted: for ΔTm at 12.5 µM: read-out: GAK. The procedure: as §1

The next experiment deals with T3, MPSK1 (Homo sapiens, UniProt O75716).
T3 construct: gene STK16; catalytic domain-containing construct
The arrangement: Thermal shift assay (DSF, SYPRO Orange), 2 uM kinase domain, mean delta Tm of triplicates versus DMSO. To be noted: for ΔTm at 12.5 µM: read-out: MPSK1. As for the experimental part: as §1

In a further experiment the target is AAK1 (Homo sapiens, UniProt Q2M2I8). The arrangement: kinase domain; Thermal shift assay (DSF, SYPRO Orange), 2 uM kinase domain, mean delta Tm of triplicates versus DMSO. To be noted: for ΔTm at 12.5 µM: read-out: AAK1. As for the experimental part:
as §1

T3 sequence (O75716 whole entry, the tested form may be a part): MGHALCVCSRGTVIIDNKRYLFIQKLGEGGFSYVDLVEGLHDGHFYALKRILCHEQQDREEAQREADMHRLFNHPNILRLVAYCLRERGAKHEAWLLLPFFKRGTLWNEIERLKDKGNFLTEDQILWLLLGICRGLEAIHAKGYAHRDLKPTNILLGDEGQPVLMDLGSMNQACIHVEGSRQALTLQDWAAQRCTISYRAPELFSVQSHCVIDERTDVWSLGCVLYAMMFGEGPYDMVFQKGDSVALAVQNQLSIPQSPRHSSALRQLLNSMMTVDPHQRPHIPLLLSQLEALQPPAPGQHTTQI
T1 sequence (Q9NSY1 whole entry, the tested form may be a part): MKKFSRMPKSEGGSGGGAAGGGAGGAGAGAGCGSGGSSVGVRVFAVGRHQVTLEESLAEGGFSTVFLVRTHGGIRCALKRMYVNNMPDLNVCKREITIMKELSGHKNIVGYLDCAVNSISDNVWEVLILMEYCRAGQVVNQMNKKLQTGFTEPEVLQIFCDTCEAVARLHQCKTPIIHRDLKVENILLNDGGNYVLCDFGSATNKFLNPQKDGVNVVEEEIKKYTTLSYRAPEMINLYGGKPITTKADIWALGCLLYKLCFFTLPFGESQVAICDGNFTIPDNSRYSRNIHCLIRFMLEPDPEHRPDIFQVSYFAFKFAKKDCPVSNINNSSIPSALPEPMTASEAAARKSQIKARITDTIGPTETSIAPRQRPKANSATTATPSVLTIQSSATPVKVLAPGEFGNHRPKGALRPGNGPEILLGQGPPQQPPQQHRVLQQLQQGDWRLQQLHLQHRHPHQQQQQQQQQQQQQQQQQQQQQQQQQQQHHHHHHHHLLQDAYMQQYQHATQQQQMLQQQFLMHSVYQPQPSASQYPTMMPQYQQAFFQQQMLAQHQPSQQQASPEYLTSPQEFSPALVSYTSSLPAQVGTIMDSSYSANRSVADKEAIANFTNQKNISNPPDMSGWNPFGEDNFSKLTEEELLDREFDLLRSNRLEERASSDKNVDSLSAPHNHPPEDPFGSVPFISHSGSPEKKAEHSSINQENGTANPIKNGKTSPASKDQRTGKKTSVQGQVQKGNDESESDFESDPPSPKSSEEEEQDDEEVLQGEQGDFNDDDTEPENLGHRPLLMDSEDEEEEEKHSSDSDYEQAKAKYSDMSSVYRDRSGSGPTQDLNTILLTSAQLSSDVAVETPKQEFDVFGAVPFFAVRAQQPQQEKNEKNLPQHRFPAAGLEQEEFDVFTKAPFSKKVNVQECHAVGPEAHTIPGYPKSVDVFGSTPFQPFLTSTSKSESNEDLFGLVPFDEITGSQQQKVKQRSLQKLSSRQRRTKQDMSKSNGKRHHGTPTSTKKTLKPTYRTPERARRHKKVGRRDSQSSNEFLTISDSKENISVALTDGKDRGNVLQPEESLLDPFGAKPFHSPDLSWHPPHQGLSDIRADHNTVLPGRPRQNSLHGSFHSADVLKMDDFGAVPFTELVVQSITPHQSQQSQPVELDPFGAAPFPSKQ
AAK1, sequence (Q2M2I8 27-365 limits assumed): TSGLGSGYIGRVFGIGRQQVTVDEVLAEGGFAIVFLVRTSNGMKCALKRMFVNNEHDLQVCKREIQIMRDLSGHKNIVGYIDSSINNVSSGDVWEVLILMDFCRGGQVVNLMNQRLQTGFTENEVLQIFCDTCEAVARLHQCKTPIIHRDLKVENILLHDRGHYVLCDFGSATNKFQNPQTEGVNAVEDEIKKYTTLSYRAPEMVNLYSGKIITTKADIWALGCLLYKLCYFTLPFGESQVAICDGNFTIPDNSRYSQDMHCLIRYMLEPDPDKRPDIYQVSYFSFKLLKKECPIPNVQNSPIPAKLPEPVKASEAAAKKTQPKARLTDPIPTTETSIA

As to `CCn1c(C(=O)N(C2CC2)C2CC2)cc2c3c(ncn3C)c(Nc3cc(C)n(C)n3)nc21` [BMS-911543], the ΔTm at 12.5 µM on BIKE was found to be 4.41 °C; on GAK, 1.58 °C; at MPSK1, 0.99 °C; at AAK1, 1.25 °C.

On to `Cn1cc(C2=C(c3cn(C4CCN(Cc5ccccn5)CC4)c4ccccc34)C(=O)NC2=O)c2ccccc21` [Enzastaurin], for which the ΔTm at 12.5 µM at BIKE is 1.79 °C; on GAK it was -0.347 °C; on MPSK1, 1.94 °C; on AAK1, 0.7 °C.

Regarding `N#CC[C@H](C1CCCC1)n1cc(-c2ncnc3[nH]ccc23)cn1` [Ruxolitinib], the ΔTm at 12.5 µM at BIKE was determined as 8.65 °C; at GAK, 2.88 °C; on AAK1, 6.18 °C. Further, the MPSK1 at MPSK1 (12.5 µM) was 5.233 °C.

Turning to `O=C(O)c1ccc(-c2c[nH]c3ncc(-c4ccccc4)cc23)cc1C1CCCC1` [GSK650394], the ΔTm at 12.5 µM on BIKE came to 13 °C; on GAK, 7.69 °C; on MPSK1, 8.84 °C; at AAK1, 8.29 °C.

`CCn1c(=O)c(-c2cc[nH]n2)cc2c(C)nc(N)nc21` [Voxtalisib]: the ΔTm at 12.5 µM at BIKE was 0.73 °C; on GAK, 0.99 °C; at MPSK1 it was 0.32 °C; at AAK1, 0.657 °C.

Turning to `CC(C)(C)c1nc(-c2cccc(NS(=O)(=O)c3c(F)cccc3F)c2F)c(-c2ccnc(N)n2)s1` [Dabrafenib], the ΔTm at 12.5 µM on BIKE was found to be 2.95 °C; on GAK, 9.06 °C; at MPSK1, 4.06 °C; on AAK1 it was 2.23 °C.

For the molecule `C=CCn1c(=O)c2cnc(Nc3ccc(N4CCN(C)CC4)cc3)nc2n1-c1cccc(C(C)(C)O)n1` [MK-1775], the ΔTm at 12.5 µM on BIKE was determined as 4.38 °C; on GAK it was 5.08 °C; on MPSK1 it was 1.18 °C; at AAK1 it was 4.03 °C.

As for `Cn1cc(-c2[nH]c3cc(NC(=O)[C@H](N)C4CCCCC4)cc4c3c2C=NNC4=O)cn1` [PF-00477736], the ΔTm at 12.5 µM is 19.1 °C on BIKE, 9.49 °C at GAK, 6.45 °C on MPSK1 and 17.8 °C on AAK1.

Regarding `O=S(=O)(c1cccc2cnccc12)N1CCCNCC1` [Fasudil], the ΔTm at 12.5 µM on BIKE is 7 °C; on GAK, -0.0367 °C; at MPSK1 it was 0.903 °C; at AAK1, 3.27 °C.

For `CCN(CC)CCNC(=O)c1c(C)[nH]c(/C=C2\C(=O)Nc3ccc(F)cc32)c1C` [Sunitinib], the ΔTm at 12.5 µM was determined as 13.9 °C at BIKE and 6.79 °C on MPSK1. The GAK at GAK (12.5 µM) came to 4.647 °C. Moreover, on AAK1 (12.5 µM), the AAK1 was 8.67 °C.

As to `Cc1ccc(-n2nc(C(C)(C)C)cc2NC(=O)Nc2ccc(OCCN3CCOCC3)c3ccccc23)cc1` [Doramapimod], the ΔTm at 12.5 µM on BIKE is 0.16 °C; on GAK, -0.607 °C; on MPSK1, 0.217 °C; at AAK1, -0.103 °C.

Regarding `CNC(=O)c1nn(C)c2c1C(C)(C)Cc1cnc(Nc3ccc(N4CCN(C)CC4)cc3)nc1-2` [Milciclib], the ΔTm at 12.5 µM at BIKE was determined as 7.73 °C; at GAK it was 10.6 °C; at MPSK1, 10.1 °C; at AAK1 it was 5.61 °C.

Turning to `Nc1cc(C(F)(F)F)c(-c2cc(N3CCOCC3)nc(N3CCOCC3)n2)cn1` [Buparlisib], the ΔTm at 12.5 µM at BIKE was 0.573 °C; at GAK, -0.927 °C; at MPSK1, 1.75 °C; at AAK1, 0.317 °C.

For `C[C@@H](Oc1ccc2[nH]nc(/C=C/c3cnn(CCO)c3)c2c1)c1c(Cl)cncc1Cl` [LY2874455], the ΔTm at 12.5 µM at BIKE turned out to be 15.2 °C; on GAK, 5.81 °C; at MPSK1, 10.3 °C; at AAK1, 11.6 °C.

On to `CN1CCN(c2nc(C3=C(c4c[nH]c5ccccc45)C(=O)NC3=O)c3ccccc3n2)CC1` [Sotrastaurin], for which the ΔTm at 12.5 µM was 3.16 °C on BIKE, 0.62 °C at GAK, 1.8 °C at MPSK1 and 1.63 °C at AAK1.

As to `COc1cc(Nc2ncc3c(n2)-c2ccc(Cl)cc2C(c2c(F)cccc2OC)=NC3)ccc1C(=O)O` [Alisertib], the ΔTm at 12.5 µM was 0.78 °C on BIKE, -0.237 °C on GAK, 2.32 °C on MPSK1 and 0.29 °C on AAK1.

For `Cc1cccc(-c2nn3c(c2-c2ccnc4ccc(C(N)=O)cc24)CCC3)n1` [Galunisertib], the ΔTm at 12.5 µM on BIKE was determined as 0.583 °C; on GAK, 3.39 °C; on MPSK1 it was 0.97 °C; at AAK1 it was 0.47 °C.

Take `C=CCN(/C=C1/C(=O)O[C@H](COC)[C@@]2(C)C1=C(O)C(=O)C1=C2[C@H](OC(C)=O)C[C@]2(C)C(=O)CC[C@@H]12)CC=C` [Sonolisib]: the ΔTm at 12.5 µM on BIKE was -1.36 °C; at GAK it was 0.82 °C; at MPSK1, 0.147 °C; on AAK1 it was -0.183 °C.

For `CC(=O)c1c(C)c2cnc(Nc3ccc(N4CCNCC4)cn3)nc2n(C2CCCC2)c1=O` [Palbociclib], the ΔTm at 12.5 µM at BIKE stood at 5.02 °C; at GAK, 0.733 °C; on MPSK1, 7.72 °C; on AAK1 it was 2.94 °C.

In the case of `CC1(C)CNc2cc(NC(=O)c3cccnc3NCc3ccncc3)ccc21` [Motesanib], the ΔTm at 12.5 µM on BIKE worked out at 0.3 °C; on GAK, 0.437 °C; on MPSK1, 0.7 °C; at AAK1, 0.467 °C.

Consider `CC(=O)Nc1cccc(-n2c(=O)n(C3CC3)c(=O)c3c(Nc4ccc(I)cc4F)n(C)c(=O)c(C)c32)c1` [Trametinib], for which the ΔTm at 12.5 µM on BIKE is 0.423 °C; at GAK, -0.66 °C; on MPSK1, 0.827 °C; at AAK1 it was 0.367 °C.

`Oc1c2ccccc2c2c3c(cccc13)N=N2` [SP600125]: the ΔTm at 12.5 µM at BIKE came out at 14.2 °C; on GAK it was 0.24 °C; at MPSK1, 0.11 °C; on AAK1, 6.88 °C.

With `CC[C@H](Nc1ncnc2[nH]cnc12)c1nc2cccc(F)c2c(=O)n1-c1ccccc1` [Idelalisib], the ΔTm at 12.5 µM at BIKE amounted to 0.527 °C; on GAK, 1.01 °C; on MPSK1, 1.52 °C; at AAK1, 0.29 °C.

As for `COc1cc(CCc2cc(NC(=O)c3ccc(N4C[C@@H](C)N[C@@H](C)C4)cc3)n[nH]2)cc(OC)c1` [AZD4547], the ΔTm at 12.5 µM at BIKE was 5.45 °C; at GAK it was -0.197 °C; at MPSK1 it was 6.5 °C; at AAK1, 3.26 °C.

As for `CC(C)(C)Cn1c(N)nc2ccc(-c3[nH]c(C(C)(C)C)nc3-c3ccc(F)cc3)nc21` [Ralimetinib], the ΔTm at 12.5 µM on BIKE came to 1.12 °C; at GAK, 9.03 °C; on MPSK1, 1.32 °C; on AAK1 it was 0.397 °C.

For the molecule `COc1cc(N2CCC(N3CCN(C)CC3)CC2)ccc1Nc1ncc(Cl)c(Nc2ccccc2P(C)(C)=O)n1` [AP26113], the ΔTm at 12.5 µM on BIKE stood at 8.42 °C; on GAK, 9.03 °C; at MPSK1 it was 2.75 °C; on AAK1, 7.77 °C.

As to `CO[C@@H](C(=O)N1Cc2[nH]nc(NC(=O)c3ccc(N4CCN(C)CC4)cc3)c2C1)c1ccccc1` [Danusertib], the ΔTm at 12.5 µM is 1.68 °C on BIKE, 0.59 °C at GAK, 2.36 °C on MPSK1 and 1.74 °C at AAK1.
